From US20240217966A1, “PHARMACEUTICAL COMPOSITION CONTAINING GLP-1 RECEPTOR AGONIST HAVING FUSED RING” (Shionogi & Co., Ltd., priority 2021, published 2024)
pEC50: −log10 of the molar value.

Target: T1, Human GLP-1 receptor (Homo sapiens, UniProt P43220)
T1 construct: expressed in transfected cells
Assay: Measurement of GLP-1 receptor agonist activity (cAMP assay);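 for pEC50: EC50 of cAMP increase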
Format: cell-based
Settings: for Emax: CHO-K1, hGLP-1R/CHO-K1 cells, cAMP, 100% = human GLP-1 (7-36) at 2 nM, 0% = DMSO only, read-out: Emax(%); for pEC50: hGLP-1R/CHO-K1 cells, cAMP increase, 37° C. 1 hour
In short: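 hGLP-1R/CHO-K1 cells in HBSS with 0.1% BSA, 20 mM HEPES, 0.1 mM IBMX and 0.2 mM RO20-1724 exposed to compound plus forskolin (400 μM stock) for 1 h at 37 °C. Intracellular cAMP read by HTRF (cAMP-d2/anti-cAMP cryptate, 1 h at room temperature).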

T1 sequence (P43220 24-463): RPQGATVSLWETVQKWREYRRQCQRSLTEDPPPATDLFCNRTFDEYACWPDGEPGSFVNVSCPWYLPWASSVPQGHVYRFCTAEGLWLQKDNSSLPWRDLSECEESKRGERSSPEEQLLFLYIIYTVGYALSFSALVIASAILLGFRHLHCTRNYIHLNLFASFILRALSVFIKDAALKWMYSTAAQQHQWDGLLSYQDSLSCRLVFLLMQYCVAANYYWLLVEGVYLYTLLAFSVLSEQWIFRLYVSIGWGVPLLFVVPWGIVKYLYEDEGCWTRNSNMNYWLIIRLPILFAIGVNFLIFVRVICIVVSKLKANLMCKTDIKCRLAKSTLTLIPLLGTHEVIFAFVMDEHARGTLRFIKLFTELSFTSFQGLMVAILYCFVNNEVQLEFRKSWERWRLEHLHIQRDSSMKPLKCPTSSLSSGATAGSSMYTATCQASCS

Row | SMILES | Emax | pEC50
1 | CC(C)n1ccc(COc2cc3c(cc2C(F)(F)F)CCN(Cc2nc4ccc(C(=O)O)cc4n2C[C@@H]2CCO2)C3)n1 [Compound I-149] | 93.7% | 7.00
2 | O=C(O)c1ccc2nc(CN3CCc4cc(C(F)(F)F)c(OCc5ccn(C(F)F)n5)cc4C3)n(C[C@@H]3CCO3)c2c1 [Compound I-150] | 92% | 7.74
3 | O=C(O)c1ccc2nc(CN3CCc4cc(C(F)(F)F)c(OCc5ccn(CC(F)(F)F)n5)cc4C3)n(C[C@@H]3CCO3)c2c1 [Compound I-151] | 93.7% | 6.91
4 | O=C(O)c1ccc2nc(CN3CCc4cc(C(F)(F)F)c(OCc5ccccc5OC(F)F)cc4C3)n(C[C@@H]3CCO3)c2c1 [Compound I-152] | 111% | 8.23
5 | COc1cc(F)c(COc2cc3c(cc2C(F)(F)F)CCN(Cc2nc4ccc(C(=O)O)cc4n2C[C@@H]2CCO2)C3)c(F)c1 [Compound I-153] | 104% | 8.27
6 | O=C(O)c1ccc2nc(CN3CCc4cc(C(F)(F)F)c(OCc5ccccc5F)cc4C3)n(C[C@@H]3CCO3)c2c1 [Compound I-154] | 97.7% | 7.42
7 | O=C(O)c1ccc2nc(CN3CCc4cc(C(F)(F)F)c(OCc5c(F)cccc5F)cc4C3)n(C[C@@H]3CCO3)c2c1 [Compound I-155] | 93.7% | 7.59
8 | O=C(O)c1ccc2nc(CN3CCc4cc(C(F)(F)F)c(OCc5ccccc5)cc4C3)n(C[C@@H]3CCO3)c2c1 [Compound I-156] | 89% | 7.43
9 | N#Cc1cc(Cl)ccc1COc1cc2c(cc1C(F)(F)F)CCN(Cc1nc3ccc(C(=O)O)cc3n1C[C@@H]1CCO1)C2 [Compound I-157] | 109% | 8.37
10 | O=C(O)c1ccc2nc(CN3CCc4cc(C(F)(F)F)c(OCc5c(F)cccc5Cl)cc4C3)n(C[C@@H]3CCO3)c2c1 [Compound I-158] | 94% | 7.79
11 | Cc1cc(F)cc(C)c1COc1cc2c(cc1C(F)(F)F)CCN(Cc1nc3ccc(C(=O)O)cc3n1C[C@@H]1CCO1)C2 [Compound I-159] | 92.3% | 7.88
12 | C[C@H]1c2cc(OCc3ccc(Cl)cc3)c(C(F)(F)F)cc2CCN1Cc1nc2ccc(C(=O)O)cc2n1C[C@@H]1CCO1 [Compound I-161] | 110% | 8.89
13 | Cc1ccc(COc2cc3c(cc2C(F)(F)F)CCN(Cc2nc4ccc(C(=O)O)cc4n2C[C@@H]2CCO2)[C@H]3C)cc1 [Compound I-162] | 106% | 8.86
14 | C[C@H]1c2cc(OCc3ccc(C4CC4)cc3)c(C(F)(F)F)cc2CCN1Cc1nc2ccc(C(=O)O)cc2n1C[C@@H]1CCO1 [Compound I-163] | 131% | 7.97
15 | COc1cc(Cl)ccc1COc1cc2c(cc1C(F)(F)F)CCN(Cc1nc3ccc(C(=O)O)cc3n1C[C@@H]1CCO1)[C@H]2C [Compound I-164] | 104% | 9.52
16 | C[C@H]1c2cc(OCc3ccccc3Cl)c(C(F)(F)F)cc2CCN1Cc1nc2ccc(C(=O)O)cc2n1C[C@@H]1CCO1 [Compound I-165] | 103% | 8.56
17 | C[C@H]1c2cc(OCc3ccc(F)cc3F)c(C(F)(F)F)cc2CCN1Cc1nc2ccc(C(=O)O)cc2n1C[C@@H]1CCO1 [Compound I-166] | 111% | 8.91
18 | C[C@H]1c2cc(OCc3ccc(Cl)cc3Cl)c(C(F)(F)F)cc2CCN1Cc1nc2ccc(C(=O)O)cc2n1C[C@@H]1CCO1 [Compound I-167] | 102% | 9.15
19 | C[C@H]1c2cc(OCc3ccc(OC(F)F)cc3F)c(C(F)(F)F)cc2CCN1Cc1nc2ccc(C(=O)O)cc2n1C[C@@H]1CCO1 [Compound I-168] | 104% | 8.65
20 | C[C@H]1c2cc(OCc3cc(F)c(Cl)cc3F)c(C(F)(F)F)cc2CCN1Cc1nc2ccc(C(=O)O)cc2n1C[C@@H]1CCO1 [Compound I-169] | 101% | 8.92
21 | C[C@H]1c2cc(OCc3ccc(C#N)cc3F)c(C(F)(F)F)cc2CCN1Cc1nc2ccc(C(=O)O)cc2n1C[C@@H]1CCO1 [Compound I-170] | 120% | 8.91
22 | COc1ccc(COc2cc3c(cc2C(F)(F)F)CCN(Cc2nc4ccc(C(=O)O)cc4n2C[C@@H]2CCO2)[C@H]3C)cc1 [Compound I-171] | 98.7% | 8.63
23 | C[C@H]1c2cc(OCc3ccc(Cl)cn3)c(C(F)(F)F)cc2CCN1Cc1nc2ccc(C(=O)O)cc2n1C[C@@H]1CCO1 [Compound I-172] | 113% | 9.02
24 | Cc1csc(COc2cc3c(cc2C(F)(F)F)CCN(Cc2nc4ccc(C(=O)O)cc4n2C[C@@H]2CCO2)[C@H]3C)n1 [Compound I-173] | 102% | 8.64
25 | C[C@H]1c2cc(OCc3ccc(Cl)cc3F)c(Cl)cc2CCN1Cc1nc2ccc(C(=O)O)cc2n1C[C@@H]1CCO1 [Compound I-174] | 109% | 8.80
